From PubChem BioAssay (NCI)
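Growth conditions: 96-well plates. Treatment: test compound, 48 hours, 5 concentrations. Analysis: linear interpolation between bracketing concentrations; unreached endpoints set to highest concentration. Here, GI50 denotes the concentration required for 50% inhibition of growth. TGI: total growth inhibition.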 Where a SMILES comes first, the peptide text is derived from it. The star is where a group is joined. Cbz = O=C(OCc1ccccc1)*; NHNH2 = NN*

Experiments:
Assay in all cases: DTP human tumour cell line panel, 48 h
[1] = tested on: A549 NSCLC
[2] = tested on: CAKI-1 renal
[3] = tested on: HCC-2998 colon
[4] = tested on: HCT-116 colon
[5] = tested on: HOP-92 NSCLC
[6] = tested on: KM12 colon
[7] = tested on: NCI-H226 lung
[8] = tested on: NCI-H460 lung
[9] = tested on: OVCAR-8 ovarian
[10] = tested on: IGROV1 ovarian

Row | SMILES | TGI [1] [µM] | TGI [2] [µM] | TGI [3] [µM] | TGI [4] [µM] | TGI [5] [µM] | TGI [6] [µM] | TGI [7] [µM] | TGI [8] [µM] | TGI [9] [µM] | TGI [10] [µM] | GI50 [1] [µM] | GI50 [3] [µM] | GI50 [4] [µM] | GI50 [5] [µM] | GI50 [10] [µM] | GI50 [6] [µM] | GI50 [7] [µM] | GI50 [8] [µM] | GI50 [9] [µM]
1 | COC(=O)c1ccc(C=Nc2ccc(S(N)(=O)=O)cc2)cc1 | > 100 | > 100 | > 100 | > 100 | > 100 | > 100 | > 100 | > 100 | > 100 |  |  |  |  |  |  |  |  |  | 
2 | CC(C)(C)c1cc(/C=C(\C#N)C(=O)NCCO)cc(C(C)(C)C)c1O | > 100 | 77.6 |  | 32.7 | > 100 | 52.7 | 40.7 | 43.5 | > 100 | > 100 |  |  |  |  |  |  |  |  | 
3 | COC1(OC)CCCCC2c3cccc(OC(C)=O)c3C21OC(C)=O (centres undefined) | > 100 |  | > 100 | > 100 |  | > 100 | > 100 |  | > 100 | > 100 |  |  |  |  |  |  |  |  | 
4 | COC(=O)Cc1c([C@H]2[C@H](CC(=O)OC)c3ccccc3N2C(C)=O)[nH]c2ccccc12 | > 100 | > 100 |  | > 100 | > 100 | > 100 | > 100 | > 100 | > 100 | > 100 |  |  |  |  |  |  |  |  | 
5 | CC(=O)OCC(OC(C)=O)C1C[C@H]2O[C@@H]3[C@H](C[C@H]2O1)O[C@@]1(C[C@@H]3C)C[C@H](C)[C@@H]2O[C@]3(C[C@@H]2O1)C[C@H]1O[C@H]2[C@H](C)[C@H]4OC(=O)CC5CC[C@H]6OC7[C@H]8O[C@]9(CC[C@H]%10CC(O)(CO)[C@H](CC[C@H]%11C[C@@H](C)C(O)(CO)C(C[C@@H]4O[C@H]2C[C@H]1O3)O%11)O%10)CC8O[C@@H]7[C@@H](O9)[C@H]6O5 (some centres undefined) | > 1 | > 1 |  | > 0.452 | > 1 | > 0.333 | 0.142 | > 1 | > 0.271 | > 1 |  |  |  |  |  |  |  |  | 
6 | COCC1OC(N2C(=O)NC(=O)[C@@H]3C=C4CCCCC4=C[C@@H]32)C(OC)C1OC (some centres undefined) | > 100 |  |  | > 100 | > 100 | > 100 | > 100 | > 100 | > 100 | > 100 |  |  |  |  |  |  |  |  | 
7 | CCCCc1ccc(Nc2nc3c(ncn3COCCO)c(=O)[nH]2)cc1 | > 100 |  | > 100 | > 100 | > 100 | > 100 | > 100 |  | > 100 | > 100 |  |  |  |  |  |  |  |  | 
8 | CCOC(=O)/C(C#N)=N\Nc1ccc(-n2c(C)nc3ccccc3c2=O)cc1 | > 100 | > 100 |  | > 100 | > 100 | > 100 | > 100 | > 100 | > 100 | > 100 |  |  |  |  |  |  |  |  | 
9 | Cc1cc2ncc3c(=O)n(NS(=O)(=O)c4ccc(N)cc4)ccc3n2n1 | > 100 | > 100 |  | > 100 | > 100 | > 100 | > 100 | > 100 | > 100 | > 100 |  |  |  |  |  |  |  |  | 
10 | OC1(c2ccc(Cl)cc2)c2ccc3ccccc3c2C2=N[C@H]3CCCC[C@@H]3N21 (some centres undefined) | > 100 | 67.1 |  | 20.5 | 77.3 | > 100 | > 100 | > 100 | 3.45 | > 100 |  |  |  |  |  |  |  |  | 
11 | O=C1NC2OC(CO)C(O)C(O1)C2O (centres undefined) |  | > 100 |  |  | > 100 | > 100 | > 100 | > 100 | > 100 | > 100 |  |  |  |  |  |  |  |  | 
12 | Brc1cccc(N=NN2CCCC2)c1 |  | > 100 |  | > 100 | > 100 | > 100 | > 100 | > 100 | > 100 | > 100 |  |  |  |  |  |  |  |  | 
13 | COc1ccc2c(c1)CC1=C(O2)c2ccc(OC)cc2OC1 | > 100 | 37.1 | > 100 | 41.8 |  | > 100 | > 100 |  | 78.2 | > 100 |  |  |  |  |  |  |  |  | 
14 | COCc1nc2c(OC)cc(-c3nc4ccc(N5CCN(C)CC5)cc4[nH]3)c(OC)c2[nH]1 | > 100 | > 100 |  | > 100 | > 100 | > 100 | > 100 | > 100 | > 100 | > 100 |  |  |  |  |  |  |  |  | 
15 | O=c1oc2cc(O)ccc2c(O)c1C(c1ccc(C(c2c(O)c3ccc(O)cc3oc2=O)c2c(O)c3ccc(O)cc3oc2=O)cc1)c1c(O)c2ccc(O)cc2oc1=O | > 100 | > 100 | > 100 | > 100 | > 100 |  | > 100 | > 100 | > 100 | > 100 |  |  |  |  |  |  |  |  | 
16 | N#Cc1c(-c2ccc(F)cc2)nc(N/N=C/c2c[nH]c3ccccc23)nc1N1CCOCC1 | 69.9 |  | > 100 | 17.9 | 52.4 | 68.9 | 88 | 25.2 | 93.8 | 79.7 | 3.99 | 9.91 | 2.17 | 2.44 | 12.8 | 4.96 | 24.2 | 3.48 | 7.63
17 | Cc1nn(-c2cc(Cl)ccc2[N+](=O)[O-])c(C)c1Cl | > 100 | > 100 | > 100 | > 100 |  | > 100 | > 100 | > 100 | > 100 | > 100 |  |  |  |  |  |  |  |  | 
18 | Cc1nc(C)c(Cc2ccccc2)o1 | > 100 | > 100 | > 100 | > 100 |  | > 100 | > 100 | > 100 | > 100 | > 100 |  |  |  |  |  |  |  |  | 
19 | COC(=O)CC(NC(=O)OCc1ccccc1)C(=O)NC(CC(=O)OC)C(=O)NC(CC(=O)OC)C(=O)NC(CC(=O)OC)C(=O)NC(CC(=O)OC)C(=O)NC(CC(=O)OC)C(=O)NN (centres undefined) (Cbz-D(OMe)D(OMe)D(OMe)D(OMe)D(OMe)D(OMe)-NHNH2; configuration not given here) |  |  | > 100 | > 100 | > 100 | > 100 |  | > 100 | > 100 | > 100 |  |  |  |  |  |  |  |  | 
20 | Cn1c([O-])nc(-n2cc[n+](C)c2)cc1=O | > 100 |  |  | > 100 | > 100 | > 100 | > 100 | > 100 |  | > 100 |  |  |  |  |  |  |  |  | 
21 | COc1ccc(Nc2nc3c([nH]2)c(=O)n(C)c(=O)n3C)cc1 | > 10 | > 10 | > 10 |  | > 10 | > 10 |  |  | > 10 | > 10 |  |  |  |  |  |  |  |  | 
